Broadly, the melting point is the temperature, or range, at which the solid turns liquid. One may read the Ki as a measure of affinity in units of concentration, obtained from inhibition or displacement.

The target in one data set is T1, 5-HT1A (Rattus norvegicus, UniProt P19327).
T1 sequence (P19327 1-422): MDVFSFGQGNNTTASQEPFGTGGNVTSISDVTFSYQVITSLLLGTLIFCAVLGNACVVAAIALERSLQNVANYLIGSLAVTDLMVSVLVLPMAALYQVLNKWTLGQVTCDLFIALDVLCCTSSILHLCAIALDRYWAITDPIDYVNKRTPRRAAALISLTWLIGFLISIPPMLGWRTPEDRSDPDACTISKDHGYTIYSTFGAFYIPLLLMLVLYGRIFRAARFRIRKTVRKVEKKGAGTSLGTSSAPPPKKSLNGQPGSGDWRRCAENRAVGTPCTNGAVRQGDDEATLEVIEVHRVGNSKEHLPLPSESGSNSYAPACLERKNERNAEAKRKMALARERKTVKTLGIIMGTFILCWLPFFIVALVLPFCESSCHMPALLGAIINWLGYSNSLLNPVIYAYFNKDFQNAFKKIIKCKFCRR
The data set can be described thus: Radioligand displacement, 5-HT1A receptors, [3H]-8-OH-DPAT. The arrangement: (a) 5-HT1A receptors, [^3H]-8-OH-DPAT, rat cerebral cortex; from tissue; host or cells: rat cerebral cortex. Format: binding. The conditions noted are these: rat cerebral cortex, read-out: Ki ± E.E. 5-HT1A.

The target of a further data set is T2, 5-HT2A receptors (Rattus norvegicus, UniProt P14842).
T2 construct: (b) 5-HT2A receptors, [^3H]ketanserin, rat cerebral cortex; from tissue; host or cells: rat cerebral cortex
The data set can be described thus: Radioligand displacement, 5-HT2A receptors, [3H]ketanserin. It is filed as binding. Conditions: rat cerebral cortex, read-out: Ki ± E.E. 5-HT2A. For orientation: Loss of bound radioactivity is the signal in a displacement assay; it reports binding, not function.

Another data set addresses T3, 5-HT7 receptors (Rattus norvegicus, UniProt P32305).
T3 construct: (e) 5-HT7 receptors, [^3H]-5-CT, rat hypothalamus; from tissue; host or cells: rat hypothalamus
The data set can be described thus: Radioligand displacement, 5-HT7 receptors, [3H]-5-CT. It is filed as binding. The conditions noted are these: read-out: Ki ± E.E. 5-HT7.

The target of another data set is T4, D2 receptors (Rattus norvegicus, UniProt P61169).
T4 construct: (g) D2 receptors, [^3H]spiperone, rat striatum; from tissue; host or cells: rat striatum
The experiment in a line: Radioligand displacement, D2 receptors, [3H]spiperone. Format: binding. The conditions noted are these: rat striatum, read-out: Ki ± E.E. D2.

A further data set addresses T5, 5-HT4 receptors (Rattus norvegicus, UniProt Q62758).
T5 construct: (d) 5-HT4 receptors, [^3H]GR 113808, rat striatum; from tissue; host or cells: rat striatum
The experiment in a line: Radioligand displacement, 5-HT4 receptors, [3H]GR 113808. Format: binding. The conditions noted are these: [3H]GR 113808, rat striatum; read-out: Ki ± E.E. 5-HT4.

Another data set concerns the target α1 receptors. The data set can be described thus: Radioligand displacement, α1 receptors, [3H]prazosin. Format: binding. The conditions noted are these: rat cerebral cortex, read-out: Ki ± E.E. α1.
The target in another data set is T6, 5-HT3 receptors (Rattus norvegicus, UniProt P35563).
T6 construct: (c) 5-HT3 receptors, [^3H]LY 278584, rat cerebral cortex; from tissue; host or cells: rat cerebral cortex
T6 sequence (P35563 24-483): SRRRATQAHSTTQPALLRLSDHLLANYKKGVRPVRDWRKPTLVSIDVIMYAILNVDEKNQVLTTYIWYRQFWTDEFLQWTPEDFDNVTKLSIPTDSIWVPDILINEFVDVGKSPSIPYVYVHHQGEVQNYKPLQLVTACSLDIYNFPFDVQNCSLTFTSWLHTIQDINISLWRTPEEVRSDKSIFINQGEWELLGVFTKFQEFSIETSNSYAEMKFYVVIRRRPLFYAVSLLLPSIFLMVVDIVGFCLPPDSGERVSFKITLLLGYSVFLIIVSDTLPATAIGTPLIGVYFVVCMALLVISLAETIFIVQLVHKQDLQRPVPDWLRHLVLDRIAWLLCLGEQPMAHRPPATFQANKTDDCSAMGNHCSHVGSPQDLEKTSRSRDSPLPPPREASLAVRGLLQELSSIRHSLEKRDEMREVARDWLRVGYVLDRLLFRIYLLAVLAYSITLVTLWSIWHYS
The data set can be described thus: Radioligand displacement, 5-HT3 receptors, [3H]LY 278584. It is filed as binding. Conditions: [3H]LY 278584, rat cerebral cortex; read-out: Ki ± E.E. 5-HT3.

Counter-ions that a name gives are not always drawn. Like-named read-outs stand apart in the source and are kept apart here.

T2 sequence (P14842 whole entry): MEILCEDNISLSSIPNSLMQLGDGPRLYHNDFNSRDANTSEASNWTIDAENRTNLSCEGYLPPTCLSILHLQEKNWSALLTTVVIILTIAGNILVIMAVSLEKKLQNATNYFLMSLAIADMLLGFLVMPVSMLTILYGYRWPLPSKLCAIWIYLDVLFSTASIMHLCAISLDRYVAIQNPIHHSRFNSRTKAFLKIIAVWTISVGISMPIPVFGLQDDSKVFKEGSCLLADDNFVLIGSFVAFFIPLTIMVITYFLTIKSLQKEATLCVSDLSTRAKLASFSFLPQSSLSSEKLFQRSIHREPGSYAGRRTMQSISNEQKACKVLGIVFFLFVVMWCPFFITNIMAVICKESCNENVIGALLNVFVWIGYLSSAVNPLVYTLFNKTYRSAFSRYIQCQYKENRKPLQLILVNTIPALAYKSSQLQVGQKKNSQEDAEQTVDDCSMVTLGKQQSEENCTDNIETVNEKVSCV
T4 sequence (P61169 whole entry): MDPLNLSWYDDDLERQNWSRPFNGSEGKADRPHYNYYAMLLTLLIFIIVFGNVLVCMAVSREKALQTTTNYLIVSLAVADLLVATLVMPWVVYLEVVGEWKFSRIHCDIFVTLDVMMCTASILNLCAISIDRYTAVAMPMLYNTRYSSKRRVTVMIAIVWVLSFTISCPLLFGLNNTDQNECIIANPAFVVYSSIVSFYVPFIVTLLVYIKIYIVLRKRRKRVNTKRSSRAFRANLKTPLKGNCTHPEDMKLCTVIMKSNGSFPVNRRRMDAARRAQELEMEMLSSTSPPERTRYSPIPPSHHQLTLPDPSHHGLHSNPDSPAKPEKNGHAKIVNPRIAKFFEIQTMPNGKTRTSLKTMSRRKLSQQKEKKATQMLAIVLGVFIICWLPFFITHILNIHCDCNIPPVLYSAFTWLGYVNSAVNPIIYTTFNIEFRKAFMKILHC
T3 sequence (P32305 whole entry): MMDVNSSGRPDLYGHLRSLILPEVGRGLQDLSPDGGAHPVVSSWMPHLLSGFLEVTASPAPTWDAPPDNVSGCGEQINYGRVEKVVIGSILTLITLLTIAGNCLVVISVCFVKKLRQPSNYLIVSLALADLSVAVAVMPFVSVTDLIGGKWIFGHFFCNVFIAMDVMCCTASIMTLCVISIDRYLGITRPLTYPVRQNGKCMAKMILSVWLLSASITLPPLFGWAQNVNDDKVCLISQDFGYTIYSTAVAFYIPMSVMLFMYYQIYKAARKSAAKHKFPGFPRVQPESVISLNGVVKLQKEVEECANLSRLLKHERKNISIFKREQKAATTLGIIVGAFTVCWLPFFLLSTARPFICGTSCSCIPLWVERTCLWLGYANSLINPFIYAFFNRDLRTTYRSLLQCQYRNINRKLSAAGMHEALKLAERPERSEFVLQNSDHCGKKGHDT
T5 sequence (Q62758 whole entry): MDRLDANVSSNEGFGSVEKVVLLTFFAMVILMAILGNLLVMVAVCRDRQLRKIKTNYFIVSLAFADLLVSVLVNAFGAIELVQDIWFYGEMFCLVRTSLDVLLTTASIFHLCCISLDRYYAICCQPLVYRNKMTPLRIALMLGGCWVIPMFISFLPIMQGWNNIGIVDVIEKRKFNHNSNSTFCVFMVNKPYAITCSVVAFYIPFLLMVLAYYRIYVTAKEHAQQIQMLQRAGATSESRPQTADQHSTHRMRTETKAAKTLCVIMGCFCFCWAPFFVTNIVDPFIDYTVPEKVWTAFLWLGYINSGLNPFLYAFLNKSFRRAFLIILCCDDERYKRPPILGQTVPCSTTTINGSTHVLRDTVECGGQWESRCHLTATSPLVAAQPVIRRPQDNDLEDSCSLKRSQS

In the case of `O=C1C2CCCN2C(=O)N1CCCCNCc1cccc2ccccc12` (centres unmarked) (as salt: hydrochloride) [Compound 7, 2-[4-[(Naphth-1-yl)methylamine]butyl]-1,3-dioxoperhydropyrrolo[1,2-c]imidazol], the melting point fell in the range of 150 to 153 °C.
With `O=C1C2CCCN2C(=O)N1CCCCNCc1ccc2ccccc2c1` (centres unmarked) (as salt: hydrochloride) [Compound 8, 2-[4-[(Naphth-2-yl)methylamine]butyl]-1,3-dioxoperhydropyrrolo[1,2-c]imidazol], the melting point lay in the range of 125 to 127 °C.
Compound `O=C1C2CCCN2C(=O)N1CCCCNCCc1cccc2ccccc12` (centres unmarked) (as salt: hydrochloride) [Compound 9, 2-[4-[2-(Naphth-1-yl)ethylamine]butyl]-1,3-dioxoperhydropyrrolo[1,2-c]imidazol] gave a melting point of 95 to 97 °C.
Still for that read-out and setting: the value for `O=C1CSC(=O)N1CCCCNCCc1cccc2ccccc12` (as salt: hydrochloride) [Compound 10, 3-[4-[2-(Naphth-1-yl)ethylamine]butyl]-2,4-dioxothiazolidin] was 128 to 129 °C; that for `O=C1C2CCCN2C(=O)N1CCCCNCCc1ccc2ccccc2c1` (centres unmarked) (as salt: hydrochloride) [Compound 11, 2-[4-[2-(Naphth-2-yl)ethylamine]butyl]-1,3-dioxoperhydropyrrolo[1,2-c]imidazol] was 130 to 132 °C.
The compound `O=C1CSC(=O)N1CCCCNCCOc1ccccc1` (as salt: hydrochloride) [Compound 13, 3-[4-[2-(Phenoxy)ethylamine]butyl]-2,4-dioxothiazolidin] came in with a melting point of 173 to 174 °C.
The compound `O=C1C2CCCN2C(=O)N1CCCCNCCOc1cccc2ccccc12` (centres unmarked) (as salt: hydrochloride) [Compound 14, 2-[4-[2-(Naphth-1-oxi)ethylamine]butyl]-1,3-dioxoperhydropyrrolo[1,2-c]imidazol] registered a melting point of 163 to 164 °C.
The compound `O=C1CSC(=O)N1CCCCNCCOc1cccc2ccccc12` (as salt: hydrochloride) [Compound 15, 3-[4-[2-(Naphth-1-oxi)ethylamine]butyl]-2,4-dioxothiazolidin] gave a melting point of 149 to 151 °C.
Regarding `O=C1C2CCCN2C(=O)N1CCCCNCc1nc2ccccc2[nH]1` (centres unmarked) (as salt: hydrochloride) [Compound 16, 2-[4-[(Benzimidazol-2-yl)methylamine]butyl]-1,3-dioxoperhydropyrrolo[1,2-c]imidazol], the melting point was 208 to 210 °C.
`COc1ccccc1CCNCCCCN1C(=O)C2CCCN2C1=O` (centres unmarked) (as salt: hydrochloride) [Compound 18, 2-[4-[2-(o-Methoxyphenyl)ethylamine]butyl]-1,3-dioxoperhydropyrrolo[1,2-c]imidazol] had a melting point of 160 to 162 °C.
In the case of `O=C1C2SCCN2C(=O)N1CCCCNCC1CCc2ccccc2O1` (racemic) (as salt: hydrochloride) [Compound 2, (±)-2-[4-[(Chroman-2-yl)methylamine]butyl]-1,3-dioxoperhydroimidazo[1,5-b]thiazol], the melting point lay in the range of 149 to 151 °C.
As to `O=C1C2CSCN2C(=O)N1CCCCNCC1CCc2ccccc2O1` (racemic) (as salt: hydrochloride) [Compound 3, (±)-2-[4-[(Chroman-2-yl)methylamine]butyl]-1,3-dioxoperhydroimidazo[1,5-c]-thiazol], the melting point lay within 142 to 144 °C.
Consider `O=C1CSC(=O)N1CCCCCCNCC1CCc2ccccc2O1` (racemic) (as salt: hydrochloride) [Compound 6, (±)-3-[6-[(Chroman-2-yl)methylamine]hexyl]-2,4-dioxothiazolidin], for which the melting point is 175 to 177 °C.
Consider `O=C1CSC(=O)N1CCCCCNCC1CCc2ccccc2O1` (racemic) [Compound 5, (±)-3-[5-[(Chroman-2-yl)methylamine]pentyl]-2,4-dioxothiazolidin], for which the inhibition constant (Ki) at 5-HT1A came to 5.5 ± 0.4 nM.
As for `O=C1CSC(=O)N1CCCCCCNCC1CCc2ccccc2O1` (racemic) [Compound 6, (±)-3-[6-[(Chroman-2-yl)methylamine]hexyl]-2,4-dioxothiazolidin], the Ki on 5-HT1A is 1.3 ± 0.2 nM.
On to `CN(C)CCCSc1ccccc1NC(=O)/C=C/c1ccccc1` [Cinanserine, reference compound], for which the Ki at 5-HT2A receptors amounted to 2.6 ± 0.4 nM.
In the case of `NCCc1c[nH]c2ccc(C(N)=O)cc12` [Compound 5-CT, 5-CT, reference compound], at 5-HT7 receptors ([3H]-5-CT, rat hypothalamus), the Ki came to 1.8 ± 0.6 nM.
With `O=C1C2CCCN2C(=O)N1CCCCNCc1cccc2ccccc12` (centres unmarked) [Compound 7, 2-[4-[(Naphth-1-yl)methylamine]butyl]-1,3-dioxoperhydropyrrolo[1,2-c]imidazol], the Ki is more than 10000 nM at D2 receptors; more than 1000 nM on 5-HT2A receptors; more than 10000 nM on 5-HT4 receptors; more than 10000 nM at 5-HT7 receptors ([3H]-5-CT, rat hypothalamus); 49.6 ± 2.9 nM at α1 receptors.
For `O=C1C2CCCN2C(=O)N1CCCCNCc1ccc2ccccc2c1` (centres unmarked) [Compound 8, 2-[4-[(Naphth-2-yl)methylamine]butyl]-1,3-dioxoperhydropyrrolo[1,2-c]imidazol], at 5-HT1A, the inhibition constant (Ki) is 51.01 ± 0.47 nM.
With `CCCN(CCC)C1CCc2cccc(O)c2C1` (centres unmarked) [Compound 8-OH-DPAT, 8-OH-DPAT, reference compound], the Ki at 5-HT7 receptors came to 83.8 nM.
Turning to `O=C1C2CCCN2C(=O)N1CCCCNCCc1cccc2ccccc12` (centres unmarked) [Compound 9, 2-[4-[2-(Naphth-1-yl)ethylamine]butyl]-1,3-dioxoperhydropyrrolo[1,2-c]imidazol], the Ki is more than 10000 nM at D2 receptors; more than 10000 nM on 5-HT2A receptors; more than 10000 nM on 5-HT4 receptors; 27.9 ± 3.1 nM at 5-HT1A; more than 1000 nM at α1 receptors.
Regarding `O=C1C2CCCN2C(=O)N1CCCCNCCc1ccc2ccccc2c1` (centres unmarked) [Compound 11, 2-[4-[2-(Naphth-2-yl)ethylamine]butyl]-1,3-dioxoperhydropyrrolo[1,2-c]imidazol], the Ki is 157.3 ± 0.65 nM at 5-HT2A receptors; 594 ± 43.7 nM at 5-HT4 receptors; more than 10000 nM on 5-HT3 receptors; 43.2 ± 4.5 nM at 5-HT1A; 74 ± 7.3 nM at 5-HT7 receptors ([3H]-5-CT, rat hypothalamus); 99 ± 14 nM on α1 receptors.
Turning to `O=C1CSC(=O)N1CCCCNCCOc1cccc2ccccc12` [Compound 15, 3-[4-[2-(Naphth-1-oxi)ethylamine]butyl]-2,4-dioxothiazolidin], the inhibition constant (Ki) at D2 receptors is more than 1000 nM; at 5-HT2A receptors, 38.5 ± 7.7 nM; at 5-HT3 receptors it was more than 10000 nM; at 5-HT1A, 4.5 ± 0.2 nM; at 5-HT7 receptors ([3H]-5-CT, rat hypothalamus), 19.9 ± 0.8 nM; on α1 receptors, 54.7 ± 1.8 nM.
As for `COc1ccccc1CNCCCCN1C(=O)C2CCCN2C1=O` (centres unmarked) [Compound 17, 2-[4-[(o-Methoxyphenyl)methylamine]butyl]-1,3-dioxoperhydropyrrolo[1,2-c]imidazol], the Ki at 5-HT1A and at α1 receptors was more than 10000 nM in each case.
For `COc1ccccc1CCNCCCCN1C(=O)C2CCCN2C1=O` (centres unmarked) [Compound 18, 2-[4-[2-(o-Methoxyphenyl)ethylamine]butyl]-1,3-dioxoperhydropyrrolo[1,2-c]imidazol], the Ki was more than 10000 nM at D2 receptors; more than 10000 nM on 5-HT2A receptors; more than 10000 nM at 5-HT4 receptors; 868 ± 23.1 nM at 5-HT1A; more than 1000 nM on α1 receptors.
Regarding `Cc1ccc(N(CC2=NCCN2)c2cccc(O)c2)cc1` [Phentolamine, reference compound], at α1 receptors, the inhibitory constant (Ki) was 6.1 ± 0.1 nM.
Regarding `COc1cc(COc2cc(N)c(Cl)cc2C(=O)CCC2CCN(CCNS(C)(=O)=O)CC2)cc(OC)c1` [RS-39604, reference compound], the Ki at 5-HT4 receptors worked out at 3.9 ± 0.2 nM.

These data come from patent publication US7351732B2, “Cycloalkanedione derivatives, method for the production thereof and their pharmacological applications” (Schwarz Pharma S.L., priority 2002, dated 2008).
